Measurements from publication PMC6823368 (Scientific Reports, 2019).
Where two headings read alike, the source gives them in different places.

Assays:
COX-1 = conditions: read-out: 50% inhibitory concentration (IC50) of COX-1; cited from earlier work
COX-2 = conditions: cited from earlier work
[1] = design: method as in earlier work; conditions: cited from earlier work
CYP2C9 = conditions: hepatic isoenzyme; cited from earlier work
2D6 = conditions: hepatic isoenzyme; cited from earlier work
3A4 = conditions: hepatic isoenzyme; cited from earlier work
plasma protein = conditions: cited from earlier work
[2] = Safety evaluations (adverse events, clinical and laboratory examinations)
Protocol: The safety assessments were conducted on account of clinical examinations, such as evaluation of general subject appearance, vital signs and routine hematology and biochemistry assays[35], together with adverse events evaluation (AEs), conducted at screening, pretreatment, post-treatment (day 7) and end of trial (day 16). […] AEs were defined as mild, moderate or severe[37]. Determination of causal relationship between AEs and study drugs followed the criterions announced by the World Health Organization[27].

[3] = n=12; for Cmax / MRT0-∞: mean (SD); for Tmax: median (range)
Protocol: The volunteers were hospitalized on day-1 (the day before the study), 10 hours of fasting was required before administration[27].
The chromatographic separation was carried out on an LC system (Shimadzu LC-20AD, Tokyo, Japan) using water and acetonitrile, and AB QTRAP 4000 system (AB Sciex, Foster City, CA, USA) in positive electrospray ion mode was hired for quantification[29]–[31]. […] Liquid-liquid extraction with 3 mL dichloromethane: diethyl ether: (2:3, v/v) was employed for 200 μL human plasma.
(§1) The measurement outcomes contained area under the profile (AUC0-t), the terminal half-life (t1/2), maximum plasma concentration observed (Cmax), time of maximum concentration (Tmax). AUC from 0 to infinity (AUC0-∞). Parameters of pharmacodynamic were estimated from the INR data on each period. PT (INR) was measured with the use of prothrombin complex assay (STA-R, SPA 50 Reagent, Diagnostica stago)[34]. Maximum INR (INRmax) and baseline INR (INRbaseline) were determined by PTtest divide PTnormal.
(§2) Log-transformation of pharmacodynamic parameters INRmax and INR(AUC) were applied.

[4] = test system: vitamin K-dependent coagulation factors; conditions: cited from earlier work
prothrombin time (INR) = conditions: area under INR-time profile 0-[…]; 5 mg warfarin; n=12
Protocol: Current study is phase I clinical trial, which was designed as open-labeled and fixed-sequence, and all the information/data were collected from a single center. […] The volunteers were hospitalized on day-1 (the day before the study), 10 hours of fasting was required before administration[27]. Subjects should avoid any activities involved in risks of haemorrhage[9].
as §1, §2

[5] = warfarin 5 mg with steady-state imrecoxib

CCCN1CC(c2ccc(S(C)(=O)=O)cc2)=C(c2ccc(C)cc2)C1=O [Imrecoxib, 4-(4-methylsulfonyl-phenyl)-1-propyl-3-(p-tolyl)-1H-pyrrol-2(5H)-one]
IC50 (COX-1): 115 ± 28 nM | selective index (IC50, COX-1/COX2) (COX-2; between that of meloxicam and celecoxib): 6.39 | IC50 (COX-2; read-out: 50% inhibitory concentration (IC50) of COX-2): 18 ± 4 nM | accumulation in plasma ([1]; 200 mg bid for 11 consecutive days): No accumulated effects | t1/2 [1]: 20 h | Tmax ([1]; following oral consumption): 2 h | single-dose pharmacokinetics dose linearity ([1]; over the 30 to 200 mg dose range): linear | rate of metabolism by CYP2C9 (CYP2C9): 62.5% | rate of metabolism by CYP2D6 (2D6): 21.1% | rate of metabolism by CYP3A4 (3A4): 16.4% | protein bound in plasma (plasma protein): 96% | adverse event ([2]; one subject, period 2, Day 8 after first dose (200 mg), about 1.5 hours, resolved without treatment, possibly related): mild abdominal/upper abdominal discomfort

CC(=O)C[C@H](c1ccccc1)c1c(O)c2ccccc2oc1=O [R-warfarin]
Cmax ([3]; warfarin 5 mg alone): 285.25 (39.66) μg/L | MRT0-∞ ([3]; warfarin 5 mg alone): 88.41 (19.96) hr | Tmax ([3]; warfarin 5 mg alone): 1.0 (0.5–3.0) hr | Cmax [3, 5]: 300.75 (36.61) μg/L | MRT0-∞ [3, 5]: 83.44 (13.39) hr | Tmax [3, 5]: 0.8 (0.5–2.0) hr

CC(=O)C[C@@H](c1ccccc1)c1c(O)c2ccccc2oc1=O [S-warfarin]
Cmax ([3]; warfarin 5 mg alone): 294.92 (50.35) μg/L | MRT0-∞ ([3]; warfarin 5 mg alone): 66.44 (15.76) hr | Tmax ([3]; warfarin 5 mg alone): 1.0 (0.5–3.0) hr | Cmax [3, 5]: 300.42 (34.01) μg/L | MRT0-∞ [3, 5]: 63.35 (12.78) hr | Tmax [3, 5]: 0.8 (0.5–2.0) hr | share of anticoagulant activity of warfarin [4]: 85%

CC(=O)CC(c1ccccc1)c1c(O)c2ccccc2oc1=O (stereo not shown) [Warfarin]
INR (AUC) (prothrombin time (INR)): 143.47 | safety and tolerance ([2]; healthy volunteers, across the trial): safey and good tolerance | transient elevated direct bilirubin ([2]; one subject, period 1, day 7, upper limit of normal 6.8 μmol/L, grade 1 AE, considered unrelated to study drugs): 9.6 µmol/L
